Values quoted from earlier work in patent publication US10646533B2, “Absorption enhancer for polyphenol” (priority 2015, dated 2020).
Like-named read-outs stand apart in the source and are kept apart here.

How the values were obtained:
[1] = orally ingested, human
[2] = orally ingested, rat

O=C(O[C@@H]1Cc2c(O)cc(O)cc2O[C@@H]1c1cc(O)c(O)c(O)c1)c1cc(O)c(O)c(O)c1 [epigallocatechin gallate]
migration rate into blood [1]: about 2% | migration rate into blood [2]: about 2%
